How the values were obtained:
[1] = molecular target: T1, PIK3C2A (Homo sapiens, UniProt O00443); test: ADP-Glo lipid kinase assay, PIK3C2A; type: biochemical; conditions: 10 µM compound
T1 construct: purchased Carna Biosciences Inc; Invitrogen Corporation

[2] = system: MCF7 cells; test: Clonogenic survival assay, MCF7; type: cell-based, human; conditions: IC50, 2 x IC50, 4 x IC50 for 24 h
Description: Cells were pre-cultured and treated with the indicated concentrations of MMV652103 for 24 h, washed, collected and re-plated, in drug-free medium, at 1000-2000 cells per well in 35 mm dishes, in triplicate. After 10-21 days the surviving cells were fixed with 3:1 methanol: acetic acid and stained with 0.5 % crystal violet (Sigma-Aldrich, USA) in 100 % methanol. Quantification of colonies was performed using ImageJ 1.5J8 software (USA) (Schneider et al., 2012[73]). Number of colonies was determined for each drug concentration and expressed as a percentage of the vehicle treated control.

[3] = system: MCF7 cells; test: ROS-Glo H2O2 assay; type: cell-based, human; conditions: MCF7, 24 h, ½ IC50 and IC50
Description: To determine whether MMV652103 induced oxidative stress in breast cancer cells, the levels of H2O2 were measured using the ROS-Glo™ H2O2 assay kit (G8820, Promega, Wisconsin, USA), according to the manufacturer's instructions. Briefly, cells (2500-4500 cells per well) were seeded in opaque 96 well plates. Cells were treated for 24 h with either vehicle or MMV652103 in a volume of 80 μl per well. After 18 h of incubation, 20 μl H2O2 Substrate Solution was added to each well. After 24 h of incubation 100 μl ROS-Glo™ Detection Solution (prepared by mixing 10 ml Luciferin Detection Reagent, 100 μl D-Cysteine and 100 μl Signal Enhancer Solution) was added to each well and incubated at RT for 20 min. After incubation, the luminescence was read using the GloMax® Explorer Multimode plate reader (Promega, Wisconsin, USA).

[4] = system: MCF7 tumors; test: Chick embryo CAM xenograft: tumor weight and metastasis; type: in vivo; conditions: every 48 h E10-E16, weighed E18
Description: All studies and procedures were conducted with prior approval of the Animal Ethics Committee of the University of Cape Town (FHS AEC REF NO:016/025) in accordance with the South African National Standard (SANS 10386:008) for the Care and Use of Animals for Scientific Purposes (SABS, 2015[71]), and guidelines from the Department of Health (2015[21]). Fertilized White Leghorn eggs were incubated at 37.5 °C with 50 % relative humidity for 9 days. At stage E9, the chorioallantoic membrane (CAM) was dropped by drilling a small hole through the eggshell into the air sac and a 1 cm^2 window was cut in the eggshell above the CAM. Cultured MCF7 cells were detached with trypsin, washed with complete medium and suspended in PBS. An inoculum of MCF7 cells was grafted onto the CAM of each E9 egg (21 eggs were used for each condition) and at E10, tumors were detectable. MCF7 tumors were treated every 48 h (E10, E12, E14, E16) by dropping 100 μl of vehicle (0.25 % DMSO in PBS), a reference compound (Paclitaxel), or MMV652103, onto the tumour. At E18 the upper portion of the CAM was removed, transferred to PBS and the tumors cut away from normal CAM tissue and weighed. A one-way ANOVA analysis with post-tests was done. In parallel, a 1 cm^2 portion of the lower CAM was collected to evaluate the number of metastatic cells. The relative amount of metastasis was calculated as follows: Tumor cells were grafted onto the upper chorioallantoic membrane (CAM) and during metastasis the cells invade the epithelium and basement membrane of the upper CAM and move through connective tissue into the vasculature into the lower CAM. The cells in the lower CAM are then harvested and genomic DNA is extracted and analyzed by qPCR with specific primers for Alu sequences which are only found in higher primates i.e. it allows for the distinction between human tumor cells and the host chick cells. Statistical analysis was directly performed on data from the Bio-Rad CFX Manager 3.1 software.

[5] = system: chick embryos; test: Chick embryo CAM model: toxicity to the embryo; type: in vivo; conditions: 4.4 μM and 22 μM
Excerpt: At stage E9, the chorioallantoic membrane (CAM) was dropped by drilling a small hole through the eggshell into the air sac and a 1 cm^2 window was cut in the eggshell above the CAM. Cultured MCF7 cells were detached with trypsin, washed with complete medium and suspended in PBS. […] At E18 the upper portion of the CAM was removed, transferred to PBS and the tumors cut away from normal CAM tissue and weighed. A one-way ANOVA analysis with post-tests was done. In parallel, a 1 cm^2 portion of the lower CAM was collected to evaluate the number of metastatic cells. The relative amount of metastasis was calculated as follows: Tumor cells were grafted onto the upper chorioallantoic membrane (CAM) and during metastasis the cells invade the epithelium and basement membrane of the upper CAM and move through connective tissue into the vasculature into the lower CAM. The cells in the lower CAM are then harvested and genomic DNA is extracted and analyzed by qPCR with specific primers for Alu sequences which are only found in higher primates i.e. it allows for the distinction between human tumor cells and the host chick cells. Statistical analysis was directly performed on data from the Bio-Rad CFX Manager 3.1 software.

T1 sequence (O00443 whole entry): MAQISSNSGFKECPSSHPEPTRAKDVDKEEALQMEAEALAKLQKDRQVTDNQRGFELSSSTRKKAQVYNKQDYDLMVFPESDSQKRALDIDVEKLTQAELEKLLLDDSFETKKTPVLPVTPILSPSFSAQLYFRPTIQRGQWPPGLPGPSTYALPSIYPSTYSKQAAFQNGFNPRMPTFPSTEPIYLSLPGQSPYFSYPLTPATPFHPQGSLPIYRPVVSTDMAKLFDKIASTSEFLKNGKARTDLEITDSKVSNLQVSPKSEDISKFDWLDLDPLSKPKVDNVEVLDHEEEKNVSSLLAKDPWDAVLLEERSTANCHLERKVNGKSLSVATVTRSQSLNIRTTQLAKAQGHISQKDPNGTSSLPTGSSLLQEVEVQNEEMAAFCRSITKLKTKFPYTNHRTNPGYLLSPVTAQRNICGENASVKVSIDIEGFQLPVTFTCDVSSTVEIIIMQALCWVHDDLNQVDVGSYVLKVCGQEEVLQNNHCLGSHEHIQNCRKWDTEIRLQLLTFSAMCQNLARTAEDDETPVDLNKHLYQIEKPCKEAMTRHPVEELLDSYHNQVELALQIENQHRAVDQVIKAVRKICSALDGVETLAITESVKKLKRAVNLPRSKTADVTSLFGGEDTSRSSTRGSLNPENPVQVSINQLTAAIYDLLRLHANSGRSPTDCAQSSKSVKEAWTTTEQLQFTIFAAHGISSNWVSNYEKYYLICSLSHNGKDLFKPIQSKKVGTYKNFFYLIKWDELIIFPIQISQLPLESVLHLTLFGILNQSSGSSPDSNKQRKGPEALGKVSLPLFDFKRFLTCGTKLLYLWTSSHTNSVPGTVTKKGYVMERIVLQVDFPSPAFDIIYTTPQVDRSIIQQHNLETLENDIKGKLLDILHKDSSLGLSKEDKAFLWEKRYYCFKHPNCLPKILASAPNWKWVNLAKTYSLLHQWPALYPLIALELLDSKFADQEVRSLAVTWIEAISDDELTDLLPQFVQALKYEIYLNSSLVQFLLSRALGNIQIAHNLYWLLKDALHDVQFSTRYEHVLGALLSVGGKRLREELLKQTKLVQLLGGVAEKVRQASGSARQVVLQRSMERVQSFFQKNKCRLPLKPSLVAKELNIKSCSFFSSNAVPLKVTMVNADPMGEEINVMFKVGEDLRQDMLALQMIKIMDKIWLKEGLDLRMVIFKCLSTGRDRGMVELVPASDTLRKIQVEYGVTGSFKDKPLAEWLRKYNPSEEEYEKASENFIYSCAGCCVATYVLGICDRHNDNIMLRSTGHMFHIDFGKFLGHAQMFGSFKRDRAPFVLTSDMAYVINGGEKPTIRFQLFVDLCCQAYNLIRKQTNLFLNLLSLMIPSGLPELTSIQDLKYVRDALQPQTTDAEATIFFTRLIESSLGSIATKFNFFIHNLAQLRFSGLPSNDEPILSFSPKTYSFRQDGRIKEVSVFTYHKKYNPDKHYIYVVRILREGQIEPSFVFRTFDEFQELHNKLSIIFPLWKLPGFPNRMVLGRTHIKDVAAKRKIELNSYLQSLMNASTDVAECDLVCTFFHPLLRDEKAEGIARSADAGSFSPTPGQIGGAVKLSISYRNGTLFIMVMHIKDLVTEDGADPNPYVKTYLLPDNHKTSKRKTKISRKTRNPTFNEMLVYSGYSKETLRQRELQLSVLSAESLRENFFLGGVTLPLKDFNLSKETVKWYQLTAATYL

CS(=O)(=O)c1ccc(-c2cnc3ccc(-c4cccc(S(C)(=O)=O)c4)nn23)cc1 [MMV652103]
remaining activity at 10 µM [1]: 39% | number of MCF7 cell colonies [2]: dose-dependent reduction | levels of H2O2 [3]: significant increase | tumor weight reduction ([4]; 4.4 μM): 34.89% | tumor weight reduction ([4]; 22 μM): 41.71% | death ratio of chick embryos [5]: did not result in an abnormal death ratio | macroscopic abnormalities of chick embryos ([5]; results not shown): nor did it lead to any macroscopic abnormalities

Source: publication PMC9149975, “The diaryl-imidazopyridazine anti-plasmodial compound, MMV652103, exhibits anti-breast cancer activity” (EXCLI Journal, 2022)
